This is an account of results in patent publication US20230210877A1, “A Composition for Management of COVID-19 and Associated Disorders” (priority 2020, published 2023).

The subject of the assay is isoproterenol induced myocardial infarction. Briefly: isoproterenol induced myocardial infarction rat model. It is filed as in vivo. To be noted: rats, isoproterenol 90 mg/kg bwt. + treatment 138 mg/kg bwt. (total). More on the design: TNF-A: unit not given here.

On to `O=C(O)[C@H]1O[C@@H](Oc2cc3oc(-c4ccccc4)cc(=O)c3c(O)c2O)[C@H](O)[C@@H](O)[C@@H]1O` [Biacalin, Baicalin], for which the GOT is recorded as 110.37, the GPT worked out at 79.57, the LDH is listed as 138.67 and the TNF-A worked out at 438.58.

As to `O=C(O[C@@H]1Cc2c(O)cc(O)cc2O[C@@H]1c1cc(O)c(O)c(O)c1)c1cc(O)c(O)c(O)c1` [EGCG, Epigallocatechin gallate], the GOT was 139.15, the GPT is recorded as 75.30 and the TNF-A was determined as 408.29.

As for `O=c1c(O)c(-c2ccc(O)c(O)c2)oc2cc(O)cc(O)c12` [Quercetin], the GOT worked out at 103.33, the GPT amounted to 90.47, the LDH stood at 121.00 and the TNF-A turned out to be 411.70.
